Active and inactive are the calls of the source. No cut-off for these calls is given here.
Key:
RAW264.7 [1] = test: Anti-inflammatory activity in mouse RAW 264.7 cells assessed as reduction in LPS-induced nitric oxide production preincubated for 2 hrs followed by LPS-stimulation measured after 24 hrs by Griess reagent method; format: functional, cell-based; conditions: time 26.0 hrs
RAW264.7 [2] = test: Anti-inflammatory activity in mouse RAW 264.7 cells assessed as reduction in LPS-induced TNF-alpha production preincubated for 2 hrs followed by LPS-stimulation measured after 24 hrs by ELISA; format: functional, cell-based; conditions: time 26.0 hrs
RAW264.7 [3] = test: Anti-inflammatory activity in mouse RAW 264.7 cells assessed as reduction in LPS-induced TNF-alpha production at 7 uM preincubated for 2 hrs followed by LPS-stimulation measured after 24 hrs by ELISA; format: functional, cell-based; conditions: time 26.0 hrs
RAW264.7 [4] = test: Anti-inflammatory activity in mouse RAW 264.7 cells assessed as reduction in LPS-induced nitric oxide production at 7 uM preincubated for 2 hrs followed by LPS-stimulation measured after 24 hrs by Griess reagent method; format: functional, cell-based; conditions: time 26.0 hrs
RAW264.7 [5] = test: Cytotoxicity against mouse RAW 264.7 cells assessed as reduction in cell viability by MTT assay; format: cell-based

SMILES | Activity (RAW264.7 [1]) | Activity (RAW264.7 [2]) | Activity (RAW264.7 [3]) | Activity (RAW264.7 [4]) | Activity (RAW264.7 [5])
CC[C@H](C)[C@H]1C[C@@]2(CC[C@H]3C[C@@H]2C3(C)C)OC2=C1C(=O)[C@](OC)(C(C)=O)C2 | Dose-dependent effect | Dose-dependent effect | Active | Active | Non-Toxic
CO[C@@]1(C(C)=O)CC2=C(C1=O)[C@H](C(C)C)C[C@@]1(CC[C@H]3C[C@@H]1C3(C)C)O2 | Dose-dependent effect | Dose-dependent effect | Active | Active | Non-Toxic

Source: ChEMBL document CHEMBL4665710, “Myrcaulones A-C, Unusual Rearranged Triketone-Terpene Adducts from Myrciariacauliflora” (J Nat Prod, 2020)
